14 compounds from PubChem BioAssay AID212 (DTP/NCI, 2004) can be followed below.

Several values for one entry are separate records, joined by “and”; a condition that tells them apart may be missing. Equal entries are not always repeated. Records with an inconclusive call do not appear.

This assay relates to BDF1 mice, colon carcinoma 38 sc, T/C %. The assay is described as follows: NCI In Vivo Anticancer Drug Screen. Data for tumor model Colon Carcinoma 38 (subcutaneous) in B6D2F1 (BDF1) mice. As to conditions: endpoint: median tumor weight (est.), higher = larger tumour. How it is done:
The antitumor activity of compounds was measured in mice bearing transplantable tumors. Survival or tumor size were measured and the results are expressed as the measurement made in the treated group (T) divided by the measurement made in the vehicle treated control group (C). The tumor model used in this assay is Colon Carcinoma 38 (subcutaneous) in B6D2F1 (BDF1) mice

Where [1] appears, read: dose: 50.0 mg/kg/injection, schedule: Q07DX002 (ip), vehicle: Klucel (hydroxypropylcellulose) (HPC).
Where [2] appears, read: dose: 100.0 mg/kg/injection, schedule: Q07DX002 (ip), vehicle: Klucel (hydroxypropylcellulose) (HPC).
Where [3] appears, read: dose: 400.0 mg/kg/injection, schedule: Q07DX002 (ip), vehicle: saline with Tween-80.
[4] abbreviates: dose: 12.5 mg/kg/injection, schedule: Q07DX002 (ip), vehicle: saline.
Where [5] appears, read: dose: 25.0 mg/kg/injection, schedule: Q07DX002 (ip), vehicle: saline.
Where [6] appears, read: dose: 50.0 mg/kg/injection, schedule: Q07DX002 (ip), vehicle: saline.
Where [7] appears, read: dose: 100.0 mg/kg/injection, schedule: Q07DX002 (ip), vehicle: saline.
Where [8] appears, read: dose: 200.0 mg/kg/injection, schedule: Q07DX002 (ip), vehicle: saline.
Where [9] appears, read: dose: 400.0 mg/kg/injection, schedule: Q07DX002 (ip), vehicle: saline.
The mark [10] stands for this setting: dose: 800.0 mg/kg/injection, schedule: Q07DX002 (ip), vehicle: saline.
Setting [11] is: dose: 50.0 mg/kg/injection, schedule: Q07DX002 (ip), vehicle: saline with Tween-80.
The mark [12] stands for this setting: dose: 25.0 mg/kg/injection, schedule: Q07DX002 (ip), vehicle: Klucel (hydroxypropylcellulose) (HPC).
The mark [13] stands for this setting: dose: 6.25 mg/kg/injection, schedule: Q07DX002 (ip), vehicle: saline.

Consider `COc1cccc2c1C(=O)c1c(O)c3c(c(O)c1C2=O)C[C@H](O)C[C@@H]3OC1CC(N)C(O)C(C)O1` (stereo partly drawn), for which the T/C is, setting by setting: (dose: 3.38 mg/kg/injection, schedule: Q07DX002 (ip), vehicle: water) 97 % of control; (dose: 13.5 mg/kg/injection, schedule: Q07DX002 (ip), vehicle: water) 108 % of control; (dose: 15.0 mg/kg/injection, schedule: Q07DX002 (ip), vehicle: saline) 87 % of control; (dose: 24.0 mg/kg/injection, schedule: Q07DX002 (ip), vehicle: saline) 101 % of control; (dose: 27.0 mg/kg/injection, schedule: Q07DX002 (ip), vehicle: water) 55 % of control; (dose: 38.0 mg/kg/injection, schedule: Q07DX002 (ip), vehicle: saline) 61 % of control.

As for `CCN(CC)CCOCc1cccc2c(=O)cc(-c3ccccc3)oc12`, the T/C under setting [1] is 66 % of control and the T/C under setting [2] is 57 % of control.

Consider `CCCCC(C)(C(=O)OCC)C(=O)OCC`, for which the T/C was 68 % of control and 69 % of control (dose: 25.0 mg/kg/injection, schedule: Q07DX003 (ip), vehicle: Klucel (hydroxypropylcellulose) (HPC)); 63 % of control and 85 % of control (dose: 200.0 mg/kg/injection, schedule: Q07DX003 (ip), vehicle: Klucel (hydroxypropylcellulose) (HPC)); 91 % of control and 102 % of control (dose: 400.0 mg/kg/injection, schedule: Q07DX003 (ip), vehicle: Klucel (hydroxypropylcellulose) (HPC)).

Turning to `COC(=O)Nc1ccc(Cc2ccc(NC(=O)OC)cc2)cc1`, the T/C runs as follows: (dose: 6.25 mg/kg/injection, schedule: Q07DX002 (ip), vehicle: saline with Tween-80) 60 % of control; under setting [3], 87 % of control and 102 % of control.

For the compound `Nc1nc(/C=C(/O)c2ccccc2)c2ncn(C3OC(CO)C(O)C3O)c2n1` (stereo not drawn), the T/C is 100 % of control (dose: 12.5 mg/kg/injection, schedule: Q07DX002 (ip), vehicle: distilled water + Tween-80); 120 % of control under setting [4]; 85 % of control (dose: 25.0 mg/kg/injection, schedule: Q07DX002 (ip), vehicle: distilled water + Tween-80); 87 % of control under setting [5]; 89 % of control under setting [6]; 110 % of control (dose: 100.0 mg/kg/injection, schedule: Q07DX002 (ip), vehicle: distilled water + Tween-80). Also, the T/C was 99 % of control under setting [7] and 120 % of control under setting [8].

With `Cc1c2ccc3ccccc3c2c[n+]2ccccc12`, the T/C is 111 % of control and 87 % of control (dose: 5.0 mg/kg/injection, schedule: Q07DX002 (ip), vehicle: Klucel (hydroxypropylcellulose) (HPC)); 77 % of control (dose: 10.0 mg/kg/injection, schedule: Q07DX002 (ip), vehicle: Klucel (hydroxypropylcellulose) (HPC)); 89 % of control (dose: 40.0 mg/kg/injection, schedule: Q07DX002 (ip), vehicle: Klucel (hydroxypropylcellulose) (HPC)).

As for `NCCc1cc(O)c(O)c(O)c1`, the T/C is 71 % of control under setting [5]; 62 % of control under setting [6]; 82 % of control under setting [7]; 80 % of control under setting [8]; 110 % of control under setting [9]; 51 % of control under setting [10].

In the case of `O=c1[nH]c(=O)n(C2CC(O)C(CO)O2)cc1I` (stereo not drawn), the T/C by setting is: under setting [11], 79 % of control; under setting [6], 44 % of control; (dose: 100.0 mg/kg/injection, schedule: Q07DX002 (ip), vehicle: saline with Tween-80) 69 % of control; under setting [7], 50 % of control; (dose: 200.0 mg/kg/injection, schedule: Q07DX002 (ip), vehicle: saline with Tween-80) 102 % of control; under setting [8], 44 % of control. For the same compound, the T/C reads like this: (dose: 200.0 mg/kg/injection, schedule: Q07DX002 (ip), vehicle: suspension in saline) 57 % of control; under setting [3], 105 % of control; under setting [9], 44 % of control; (dose: 400.0 mg/kg/injection, schedule: Q07DX002 (ip), vehicle: suspension in saline) 102 % of control; (dose: 800.0 mg/kg/injection, schedule: Q07DX002 (ip), vehicle: saline with Tween-80) 75 % of control; under setting [10], 18 % of control. Besides, the T/C (dose: 800.0 mg/kg/injection, schedule: Q07DX002 (ip), vehicle: suspension in saline) was 59 % of control; the T/C (dose: 1600.0 mg/kg/injection, schedule: Q07DX002 (ip), vehicle: saline with Tween-80) is 48 % of control; the T/C (dose: 1600.0 mg/kg/injection, schedule: Q07DX002 (ip), vehicle: saline) was 1 % of control.

`Nc1nc(F)nc2c1ncn2C1OC(COP(=O)(O)O)C(O)C1O` (stereo not drawn): the T/C is, setting by setting: under setting [4], 184 % of control; under setting [6], 87 % of control; under setting [7], 116 % of control and 93 % of control; under setting [8], 82 % of control and 101 % of control; under setting [9], 76 % of control and 83 % of control.

Consider `CN(C)N=Nc1ccccc1`, for which the T/C (dose: 12.5 mg/kg/injection, schedule: Q07DX002 (ip), vehicle: Klucel (hydroxypropylcellulose) (HPC)) is 80 % of control and 86 % of control; the T/C under setting [12] is 42 % of control and 49 % of control; the T/C under setting [2] was 24 % of control and 27 % of control.

For the compound `CN(N=O)C(N)=O`, the T/C reads like this: (dose: 3.12 mg/kg/injection, schedule: Q07DX002 (ip), vehicle: saline) 95 % of control; (dose: 6.0 mg/kg/injection, schedule: Q07DX002 (ip), vehicle: saline) 93 % of control; under setting [13], 99 % of control; (dose: 6.25 mg/kg/injection, schedule: Q07DX002 (ip), vehicle: suspension in saline) 108 % of control; (dose: 12.0 mg/kg/injection, schedule: Q07DX002 (ip), vehicle: saline) 112 % of control; under setting [4], 78 % of control. Besides, the T/C was 76 % of control (dose: 12.5 mg/kg/injection, schedule: Q07DX002 (ip), vehicle: suspension in saline); 43 % of control and 62 % of control under setting [5]; 55 % of control (dose: 25.0 mg/kg/injection, schedule: Q07DX002 (ip), vehicle: suspension in saline); 37 % of control under setting [6]; 82 % of control (dose: 50.0 mg/kg/injection, schedule: Q07DX002 (ip), vehicle: suspension in saline); 84 % of control (dose: 100.0 mg/kg/injection, schedule: Q07DX002 (ip), vehicle: suspension in saline).

As to `C/C(=N\N=C(/[Se])N1CC2CCC(CC2)C1)c1ccccn1`, the T/C by setting is: (dose: 3.0 mg/kg/injection, schedule: Q07DX002 (ip), vehicle: Klucel (hydroxypropylcellulose) (HPC)) 111 % of control; (dose: 6.0 mg/kg/injection, schedule: Q07DX002 (ip), vehicle: Klucel (hydroxypropylcellulose) (HPC)) 67 % of control; (dose: 12.0 mg/kg/injection, schedule: Q07DX002 (ip), vehicle: Klucel (hydroxypropylcellulose) (HPC)) 91 % of control; under setting [12], 106 % of control; under setting [1], 45 % of control.

For `CCc1ccc(C2=C(O)C(=O)C(c3ccc(CC)cc3)=C(O)C2=O)cc1`, the T/C by setting is: (dose: 3.12 mg/kg/injection, schedule: Q07DX002 (ip), vehicle: saline with Tween-80) 51 % of control; (dose: 12.5 mg/kg/injection, schedule: Q07DX002 (ip), vehicle: saline with Tween-80) 124 % of control; (dose: 25.0 mg/kg/injection, schedule: Q07DX002 (ip), vehicle: saline with Tween-80) 96 % of control; under setting [11], 81 % of control.

`COc1cccc2c1C(=O)c1c(O)c3c(c(O)c1C2=O)CC(O)(/C(C)=N/NC(=O)CCCCC(=O)N/N=C(\C)C1(O)Cc2c(O)c4c(c(O)c2C(OC2CC(N)C(O)C(C)O2)C1)C(=O)c1c(OC)cccc1C4=O)CC3OC1CC(N)C(O)C(C)O1` (stereo not drawn): the T/C under setting [13] is 46 % of control; the T/C (dose: 6.25 mg/kg/injection, schedule: Q07DX002 (ip), vehicle: water) is 68 % of control; the T/C under setting [4] is 32 % of control; the T/C (dose: 12.5 mg/kg/injection, schedule: Q07DX002 (ip), vehicle: water) was 21 % of control.
